According to patent US6288056A, “Intermittent claudication therapeutic drugs comprising pyrroloazepines” (Suntory Limited, priority 1999, dated 2001):
Read-outs that look alike come from different tables or passages of the source.

Tests used:
Coronary artery = assay: Relaxation of vasoconstriction induced by supernatant of aggregated platelets, coronary artery; set-up: species or system male Japanese white rabbit; conditions: Oryctolagus cuniculus, aggregated platelet supernatant 1/100-fold dilution, read-out: EC50 (50% relaxation)
Experimental: (§1) After a male Japanese white rabbit was anesthetized by intramuscular administration of ketamine (product of sankyo Company, Limited) at 50 mg/kg, a polyethylene-made catheter ["PE240" (trade name), manufactured by Becton Dickinson Co., Ltd.] was inserted into a carotid artery, and the blood was collected with a tube containing a 1/10 volume of a 3.8% aqueous solution of sodium citrate [NACALAI TESQUE, Inc.]. The blood so collected was centrifuged at 90 g (900 rpm) for 15 minutes ["05PR-22" (trade name), manufactured by Hitachi Koki Co., Ltd.] and platelet-rich plasma (PRP) was collected from the upper layer.
(§2) After addition of an equiamount of buffer A (25 mM Tris-HCl, 130 mM NaCl, 1.5 mM EDTA, pH 7.4), to PRP, the mixture was centrifuged at 4° C. and 1,500 g (3,000 rpm) for 10 minutes. The thus-obtained platelet pellet was suspended again in buffer A, followed by centrifugation at 4° C. and 1,500 g (3,000 rpm) for 5 minutes. The resulting platelet pellet was suspended again in buffer B (25 mM Tris-HCl, 130 mM NaCl, 0.3 mM EDTA, pH 7.4), followed by centrifugation under the same conditions. […]
(§3) After the vascular strip preparations had been left over for about 1 hour and their resting tensions had been confirmed to become stable, the tonicities of the vascular strip preparations were measured using the isometric transducers. […]

[1] = tested on: platelet aggregation (platelet-rich plasma); assay: Inhibitory Effect on Canine Platelet Aggregation (ex vivo after oral administration, collagen + serotonin); type: in vivo, canine (male beagles); conditions: Canis lupus familiaris, 0.1 mg/kg oral, collagen + serotonin 1 μM, read-out: Aggregation inhibition rate
Experimental: Four male beagles which ranged in age from 17 to 19 months were used after fasted overnight. A suspension of (-)-(S)-5-[3-[4-(4-fluorophenyl)piperazin-1-yl]propyl]-8-hydroxy-1-methyl- 1,4,5,6,7,8-hexahydropyrrolo[3,2-c]azepin-4-one (test compound a) in a 0.5% aqueous solution of carboxymethylcellulose sodium salt was orally administered at 0.1 mg/kg. Before the administration of the test compound and after elapsed times of 1, 2, 4 and 6 hours from the administration, blood samples were collected from the foreleg veins. The blood was sampled using syringes containing a 1/10 volume of a 3.8% aqueous solution of sodium citrate ["cytorate for ESR Measurement" (trade name), product of The Green Cross Corp.].
Each collected blood sample was centrifuged at room temperature and 190 g for 7 minutes, and the upper layer, platelet-rich plasma (PRP), was collected. The remaining blood was centrifuged at 1,500 g for 10 minutes, and the upper layer, platelet-poor plasma (PPP), was collected. Using collagen [final concentration: 0.03 to 5 μg/ml, "Collagenreagent Form" (trade name), product of Moriya Sangyo Co., Ltd.] and serotonin (final concentration: 1 μM, serotonin hydrochloride, product of Sigma Chemical Co.) as a platelet proaggrecant, the platelet aggregating ability was measured by the Born turbidimetry. Specifically, using PPP as a control, a solution of calcium chloride (product of NACALAI TESQUE, INC.) was added to PRP at 37° C. to give a final concentration of 1 mM. After 2 minutes, the proaggrecant was added. Variations in transmittance, which took place in the course of subsequent 10 minutes, were measured using a platelet aggregometer measuring instrument ["PAM-8C" (trade name), manufactured by MEBANCS, INC.], and its maximum value was recorded as a platelet aggregation rate (%). […] As an aggregation inhibition rate, the proportion of an aggregation rate after the administration of the test compound relative to an aggregation rate before the administration of the test compound was shown in percentage.

[2] = tested on: pulmonary thromboembolic death; assay: Inhibitory Action in Mouse Pulmonary Thromboembolic Death; type: in vivo, male ddY mice; conditions: 3 mg/kg oral; within 10 minutes after injection of collagen 1 mg/kg and serotonin hydrochloride 5 mg/kg
Experimental: Male ddY mice which ranged in age from 4 to 5 weeks were used after fasted overnight. Suspensions of Compounds a-c, which will be specified subsequently herein, in a 0.5% aqueous solution of carboxymethylcellulose sodium were orally administered at 3 mg/kg.
After 1 hour, collagen [1 mg/kg, "Collagenreagent Form" (trade name), product of Moriya Sangyo Co., Ltd.] and serotonin hydrochloride (5 mg/kg, product of Sigma Chemical Co.) were injected through the candal veins.
An investigation was made for mortality rates of mice within 10 minutes after the injection.

Basilar artery = assay: Relaxation of vasoconstriction induced by supernatant of aggregated platelets, basilar artery; set-up: species or system male Japanese white rabbit; conditions: Oryctolagus cuniculus, aggregated platelet supernatant 1/100-fold dilution, read-out: EC50 (50% relaxation)
Experimental: as §1, §2, §3

Femoral artery = assay: Relaxation of vasoconstriction induced by supernatant of aggregated platelets, femoral artery; set-up: species or system male Japanese white rabbit; conditions: Oryctolagus cuniculus, aggregated platelet supernatant 1/100-fold dilution, read-out: EC50 (50% relaxation)
Experimental: as §1, §2, §3

Mesenteric artery = assay: Relaxation of vasoconstriction induced by supernatant of aggregated platelets, mesenteric artery; set-up: species or system male Japanese white rabbit; conditions: Oryctolagus cuniculus, aggregated platelet supernatant 1/100-fold dilution, read-out: EC50 (50% relaxation)
Experimental: as §1, §2, §3

[3] = tested on: gastrocnemius-plantaris-sole muscle (GPS muscle); assay: Test in Rat Intermittent Claudication Model (muscle contraction force after collagen infusion); type: in vivo, male Wistar rats; conditions: 20 minutes after collagen infusion
Experimental: Based on the methods proposed by Angersbach, D. et al. in Int. J. Microcirc. Clin. Exp., 7, 15-30 (1988) and by Loots, W. et al. in Am. J. Physiol. 265, H158-H164 (1993), an intermittent claudication model was designed as will be described next. Firstly, male Wistar rats which ranged in age from 9 to 10 weeks were ligated at right femoral arteries under anesthesia with pentobanbital [40 mg/kg, intraperitoneal administration, "Nembutal Injection" (trademark), product of Dainabot Co., Ltd.] and were fed for 1 week. After fasted overnight, a suspension of (-)-(S)-5-[3-[4-(4-fluorophenyl)piperazin-1-yl]propyl]-8-hydroxy-1-methyl- 1,4,5,6,7,8-hexahydropyrrolo[3,2-c]azepin-4-one (test compound a) in a 0.5% aqueous solution of carboxymethylcellulose sodium salt was orally administered at 1, 3 and 10 mg/kg, respectively.
After an elapsed time of 60 minutes since the administration, each rat was subjected to anesthetization with urethan ([…], intraperitoneal administration, product of Sigma Chemical Co.) and α-chloralose ([…], intraperitoneal administration, product of NACALAI TESQUE, INC.). To administer collagen into artery, a cannula ["SP-31" (trade name), manufactured by Natsume Seisakusho Co., Ltd.] was inserted through the left carotid artery such that its leading end was located on a proximal side of the branching point of the iliac artery. Thereafter, the rat was held in a prone position, and the skin of the right hind leg was flayed to expose the gastrocnemius-plantaris-sole muscle (GPS muscle). The Achilles tendon was bound and cut off, connected to an isometric tension meter ["CBE-1 10 kg" (trade name), manufactured by MINEBEA Co., Ltd.], and then held in place with a resting tension of about 100 g. […] Contraction force produced upon electric stimulation was recorded [amplifier: "AP-620G" (trade name), manufactured by Nihon Kohden Corporation, recorder: "WT-645G" (trade name), manufactured by Nihon Kohden Corporation]. […]

Renal artery = assay: Relaxation of vasoconstriction induced by supernatant of aggregated platelets, renal artery; set-up: species or system male Japanese white rabbit; conditions: Oryctolagus cuniculus, aggregated platelet supernatant 1/100-fold dilution, read-out: EC50 (50% relaxation)
Experimental: as §1, §2, §3

Pulmonary artery = assay: Relaxation of vasoconstriction induced by supernatant of aggregated platelets, pulmonary artery; set-up: species or system male Japanese white rabbit; conditions: Oryctolagus cuniculus, aggregated platelet supernatant 1/100-fold dilution, read-out: EC50 (50% relaxation)
Experimental: as §1, §2, §3

SMILES: Cn1ccc2c1[C@@H](O)CCN(CCCN1CCN(c3ccc(F)cc3)CC1)C2=O [Compound a, (-)-(S)-5-[3-[4-(4-fluorophenyl)piperazin-1-yl]propyl]-8-hydroxy-1-methyl-1,4,5,6,7,8-hexahydropyrrolo[3,2-c]azepin-4-one]
- EC50 (Coronary artery): 0.254 ± 0.054 µM
- inhibition at 0.1 mg/kg ([1]; 1 hr after administration): 99.7 ± 0.3%
- inhibition at 0.1 mg/kg ([1]; 2 hr after administration): 99.8 ± 0.2%
- inhibition at 0.1 mg/kg ([1]; 4 hr after administration): 99.3 ± 0.7%
- inhibition at 0.1 mg/kg ([1]; 6 hr after administration): 72.5 ± 16.1%
- Mortality rate [2]: 10%
- EC50 (Basilar artery): 0.138 ± 0.055 µM
- EC50 (Femoral artery): 0.328 ± 0.112 µM
- EC50 (Mesenteric artery): 0.032 ± 0.022 µM
- Contraction force ([3]; 1 mg/kg oral): 93 ± 17 g
- Contraction force ([3]; 3 mg/kg oral): 116 ± 15 g
- Contraction force ([3]; 10 mg/kg oral): 122 ± 10 g
- EC50 (Renal artery): 0.246 ± 0.079 µM
- EC50 (Pulmonary artery): 0.014 ± 0.003 µM

SMILES: Cn1ccc2c1C(O)CCN(CCCN1CCN(c3ccc(F)cc3)CC1)C2=O (racemic) [Compound b, (±)-5-[3-[4-(4-fluorophenyl)piperazin-1-yl]propyl]-8-hydroxy-1-methyl-1,4,5,6,7,8-hexahydropyrrolo[3,2-c]azepin-4-one]
- Mortality rate [2]: 25%

SMILES: Cc1cn(C)c2c1C(=O)N(CCCN1CCN(c3ccc(F)cc3)CC1)CCC2O (stereo not shown) [Compound c, 5-[3-[4-(4-fluorophenyl)piperazin-1-yl]propyl]-8-hydroxy-1,3-dimethyl-1,4,5,6,7,8-hexahydropyrrolo[3,2-c]azepin-4-one]
- Mortality rate [2]: 30%
